{"source": "patent US7342018B2", "about": "“Urokinase inhibitors and uses thereof” (Wilex AG, priority 1998, dated 2008)", "key": {"[1]": {"molecular_target": "Factor Xa (Homo sapiens, UniProt P00742)", "sequence (P00742 235-488 limits assumed)": "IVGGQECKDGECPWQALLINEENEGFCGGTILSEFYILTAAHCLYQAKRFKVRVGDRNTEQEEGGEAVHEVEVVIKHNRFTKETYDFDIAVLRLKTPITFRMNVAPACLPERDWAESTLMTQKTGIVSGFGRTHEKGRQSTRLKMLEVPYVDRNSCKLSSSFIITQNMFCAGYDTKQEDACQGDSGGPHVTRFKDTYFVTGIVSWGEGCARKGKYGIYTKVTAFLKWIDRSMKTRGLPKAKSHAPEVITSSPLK", "sequence (P00742 41-179 partner limits assumed)": "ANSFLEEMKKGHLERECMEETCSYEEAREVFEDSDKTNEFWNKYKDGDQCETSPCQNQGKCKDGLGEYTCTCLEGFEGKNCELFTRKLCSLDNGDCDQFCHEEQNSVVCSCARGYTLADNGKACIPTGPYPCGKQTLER", "assay": "In vitro inhibition of serine proteases: factor Xa", "type": "biochemical", "description": "Ki values were determined according to Dixon by linear regression using a computer program."}, "[2]": {"molecular_target": "T1, Factor XIIa (Homo sapiens, UniProt P00748)", "T1 sequence (P00748 373-615 limits assumed)": "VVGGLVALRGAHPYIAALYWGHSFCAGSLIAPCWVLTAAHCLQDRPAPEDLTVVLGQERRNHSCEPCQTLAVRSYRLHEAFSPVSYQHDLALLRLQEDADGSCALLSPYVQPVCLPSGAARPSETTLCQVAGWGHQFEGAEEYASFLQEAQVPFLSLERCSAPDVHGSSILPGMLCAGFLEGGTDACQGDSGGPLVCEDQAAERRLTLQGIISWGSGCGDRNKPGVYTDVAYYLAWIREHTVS", "assay": "In vitro inhibition of serine proteases: factor XIIa", "type": "biochemical", "description": "(§1) To determine the inhibitory activity, 200 μl of Tris buffer (0.05 mol/l, containing the inhibitor, 0.154 mol/l NaCl, 5% ethanol pH 8.0), 25 μl of substrate (Pefachrome UK or Bz-βAla-Gly-Arg-pNA in H2O; Pentapharm Ltd., Basle, Switzerland) and 50 μl of sc-urokinase (Ribosepharm GmbH, Haan, Germany) were incubated at 25° C. After 3 min the reaction was stopped by adding 25 μl of acetic acid (50%), and the absorption at 405 nm was determined by means of a Microplate Reader (MR 5000, Dynatech, Denkendorf, Germany). Ki values were determined according to Dixon by linear regression using a computer program. The Ki values are the mean values of at least three determinations with a standard deviation of less than 25%.\n(§2) The inhibition activities of the enzymes used were determined according to the principle described in Example 3."}, "[3]": {"molecular_target": "Plasma kallikrein (Homo sapiens, UniProt P03952)", "sequence (P03952 20-638, species assumed)": "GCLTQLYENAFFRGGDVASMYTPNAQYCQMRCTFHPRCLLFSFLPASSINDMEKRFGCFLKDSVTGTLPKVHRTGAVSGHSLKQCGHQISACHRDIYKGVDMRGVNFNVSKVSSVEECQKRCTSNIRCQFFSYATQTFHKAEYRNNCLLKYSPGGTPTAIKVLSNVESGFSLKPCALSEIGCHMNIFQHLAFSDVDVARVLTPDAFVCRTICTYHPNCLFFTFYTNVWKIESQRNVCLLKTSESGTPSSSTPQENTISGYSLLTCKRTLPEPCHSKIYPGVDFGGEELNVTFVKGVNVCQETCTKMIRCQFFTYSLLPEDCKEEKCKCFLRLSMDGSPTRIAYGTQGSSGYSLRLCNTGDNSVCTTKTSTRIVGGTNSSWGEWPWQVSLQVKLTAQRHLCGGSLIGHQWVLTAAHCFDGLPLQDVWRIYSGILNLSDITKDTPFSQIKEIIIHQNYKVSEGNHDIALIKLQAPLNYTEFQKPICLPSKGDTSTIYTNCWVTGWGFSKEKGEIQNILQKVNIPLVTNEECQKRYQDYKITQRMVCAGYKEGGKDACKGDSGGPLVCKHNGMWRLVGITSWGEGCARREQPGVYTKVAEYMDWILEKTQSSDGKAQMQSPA", "assay": "In vitro inhibition of serine proteases: plasma kallikrein", "type": "biochemical", "description": "as §1, §2"}, "[4]": {"test_system": "pancreatic adenocarcinoma CA20948", "assay": "Pancreatic carcinoma model in rats", "type": "in vivo, rat", "conditions": "for mass of the tumor-containing pancreas, reduced by % / masses of the subcutaneous tumors, reduced by %: vs vehicle-treated group", "description": "Fragments of the transplantable and metastasizing pancreatic adenocarcinoma CA20948 from rats were explanted from donor animals. After cell isolation, equal amounts of suspended tumor cells together with 2 mg of Matrigel were subcutaneously implanted into each of the acceptor animals, male 10 week-old Lewis rats (n=9). The treatment procedure and also the composition of the therapy groups were the same as under A).\nThe experiments described in sections A and B were repeated with the inhibitor administered in a different way. For this, the inhibitor was administered subcutaneously in the breast carcinoma model (n=9) and intraperitoneally in the pancreatic adenocarcinoma model (n=8) without changing the daily dose. The results of these repeat experiments corresponded to the results already discussed, both in tendency and extent."}, "[5]": {"assay": "Solubility in Tris buffer", "conditions": "Tris buffer (pH 7.3)"}, "[6]": {"conditions": "1 mg/kg daily, vs naphthyl derivative and control (FIG. 5)"}}, "data": [{"smiles": "CCOC(=O)N1CCN(C(=O)[C@H](Cc2cccc(C(=N)N)c2)NS(=O)(=O)c2c(C(C)C)cc(C(C)C)cc2C(C)C)CC1.Cl", "note": "[uPA inhibitor, Nα-2,4,6-Triisopropylphenylsulfonyl-(L)-3-amidinophenylalanine 4-ethoxycarbonylpiperazide hydrochloride]", "values": [{"measurement": "Ki", "setting": "[1]", "result": 1.7, "unit": "µM"}, {"measurement": "Ki", "setting": "[2]", "result": 13, "unit": "µM"}, {"measurement": "Ki", "setting": "[3]", "result": 7.2, "unit": "µM"}, {"measurement": "growth of developing rat pancreatic carcinomas", "setting": "[4]; [6]", "result": "decrease"}, {"measurement": "tumor weight", "setting": "[4]; [6]", "result": "significant reduction"}, {"measurement": "number of detected liver foci, % compared to vehicle-treated control", "setting": "[4]; i.p., 1 mg/kg daily", "result": 29, "unit": "%"}, {"measurement": "mass of the tumor-containing pancreas, reduced by %", "setting": "[4]; i.p., 1 mg/kg daily", "result": 76, "unit": "%"}, {"measurement": "masses of the subcutaneous tumors, reduced by %", "setting": "[4]; i.p., 1 mg/kg daily", "result": 54, "unit": "%"}, {"measurement": "number of metastatic liver foci", "setting": "[4]; rat pancreatic cancer model, vs vehicle-treated controls", "result": "substantially reduced"}, {"measurement": "number of detected liver foci, % compared to vehicle-treated control", "setting": "[4]; s.c., 1 mg/kg daily", "result": 2, "unit": "%"}, {"measurement": "mass of the tumor-containing pancreas, reduced by %", "setting": "[4]; s.c., 1 mg/kg daily", "result": 34, "unit": "%"}, {"measurement": "masses of the subcutaneous tumors, reduced by %", "setting": "[4]; s.c., 1 mg/kg daily", "result": 60, "unit": "%"}, {"measurement": "solubility", "setting": "[5]; addition of 5% DMSO", "result": "10^−3 mol/l"}, {"measurement": "solubility", "setting": "[5]; addition of 5% ethanol", "result": "2×10^−4 moll"}]}]}
